Molecular target: T1, mouse Tas2r126 (Mus musculus, UniProt P59532)
T1 construct: expressed in transfected cells; host or cells: HEK293T-Gα16gust44
T1 sequence (P59532 1-308): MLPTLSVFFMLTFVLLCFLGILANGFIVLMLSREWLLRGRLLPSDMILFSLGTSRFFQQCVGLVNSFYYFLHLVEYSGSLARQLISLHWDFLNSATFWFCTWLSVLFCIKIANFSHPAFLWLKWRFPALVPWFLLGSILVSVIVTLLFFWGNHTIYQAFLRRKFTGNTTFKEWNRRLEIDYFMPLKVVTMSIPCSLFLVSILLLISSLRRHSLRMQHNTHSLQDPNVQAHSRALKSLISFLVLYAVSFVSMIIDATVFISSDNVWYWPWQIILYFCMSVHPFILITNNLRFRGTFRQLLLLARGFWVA
Experiment: Calcium imaging assay (FLIPR), HEK293T-Gα16gust44 cells transfected with mouse Tas2r126
Assay type: cell-based
Protocol: This set of bile acids was chosen because of their commercial availability in high purities, their diversity within the class of bile acids and their previous detection and quantitation in human blood. Stock solutions were prepared in DMSO.
As basal growth medium for the HEK293T-Gα16gust44 cell line[17],[59] served Dulbecco’s modified eagle medium (DMEM) (Thermo Fisher Scientific, Darmstadt, Germany) supplemented with 10 % fetal bovine serum (Sigma-Aldrich, Steinheim, Germany), 2 mM L-glutamine (Sigma-Aldrich, Steinheim, Germany), 100 units/ml penicillin (Sigma Aldrich, Steinheim, Germany) and 100 µg/ml streptomycin (Sigma Aldrich, Steinheim, Germany). Growth conditions were 37 °C, 5 % CO2 and saturated air-humidity[60].
HEK293T-Gα16gust44 cells were seeded on poly-D-lysine (10 µg/ml) coated 96-well plates to reach a confluence of 40-60 % the next day. For transient transfection 150 ng of plasmid DNA containing the receptor of interest and 0.3 µl lipofectamine 2000 (Thermo Fisher Scientific, Darmstadt, Germany) per well were used and transfection took place according to the manual of lipofectamine 2000. […] The empty vector DNA (mock) was transfected as negative control[14],[41].
Cells were loaded using the calcium-sensitive fluorescent dye Fluo-4-AM (Abcam, Cambridge, Great Britain) in the presence of 2.5 mM probenecid (Sigma-Aldrich, Steinheim, Germany) the day after transfection[13],[41]. 1 h after loading, cells were washed with C1 buffer using a BioTek Cell Washer, incubated in the dark for half an hour and washed again. For automated agonist application and measurement of fluorescence changes, a FLIPR^TETRA device (Molecular Devices, San José, United States) was used. Viability of cells was tested by application of 100 nM Somatostatin 14 (Bachem, Bubendorf, Switzerland)[42].
Measured data were negative control corrected by subtracting the signal of the mock-transfected cells and exported to Microsoft Excel using the FLIPR software ScreenWorks 4.2. In Microsoft Excel software, standardization of maximum fluorescence intensities to the basal fluorescence and normalization to the buffer-only control was done to calculate the relative fluorescence changes (ΔF/F).
Initial screening experiments performed in duplicate wells were confirmed by at least one replication and representative traces were selected for display. All dose-response relationships were determined by three independent experiments (biological replicates) performed in duplicates (technical replicates). Threshold concentrations, defined as lowest substance concentrations leading to statistically significant elevated fluorescence changes in receptor-transfected cells compared with empty vector-transfected cells, were determined using SigmaPlot with Student’s t-test to evaluate statistical significance (p < 0.01).

C[C@H](CCC(=O)O)[C@H]1CC[C@H]2[C@@H]3[C@H](O)C[C@@H]4C[C@H](O)CC[C@]4(C)[C@H]3C[C@H](O)[C@]12C [Cholic Acid, cholic acid]
RLU (Time 0 s): 0 RLU
RLU (Time 2 s): 6.32 RLU
RLU (Time 4 s): -17.4742 RLU
RLU (Time 6 s): 5.446 RLU
RLU (Time 8 s): 10.1237 RLU
RLU (Time 12 s): 18.7423 RLU
RLU (Time 14 s): -3.953 RLU
RLU (Time 16 s): -7.647 RLU
RLU (Time 18 s): 11.4341 RLU
RLU (Time 18.781 s): -6.409 RLU
RLU (Time 20.781 s): -22.1196 RLU
RLU (Time 22.781 s): 57.6732 RLU
RLU (Time 24.781 s): 119.461 RLU
RLU (Time 26.781 s): 150.574 RLU
RLU (Time 28.781 s): 265.727 RLU
RLU (Time 30.781 s): 370.327 RLU
RLU (Time 32.781 s): 482.177 RLU
RLU (Time 34.781 s): 570.785 RLU
RLU (Time 36.781 s): 665.431 RLU
RLU (Time 38.781 s): 689.631 RLU
RLU (Time 40.781 s): 736.63 RLU
RLU (Time 42.781 s): 773.753 RLU
RLU (Time 44.781 s): 819.752 RLU
RLU (Time 46.781 s): 829.41 RLU
RLU (Time 48.781 s): 884.282 RLU
RLU (Time 50.781 s): 903.917 RLU
RLU (Time 52.781 s): 907.88 RLU
RLU (Time 54.781 s): 897.488 RLU
RLU (Time 56.781 s): 894.491 RLU
RLU (Time 58.781 s): 914.837 RLU
RLU (Time 60.781 s): 925.711 RLU
RLU (Time 62.781 s): 919.134 RLU
RLU (Time 64.781 s): 943.476 RLU
RLU (Time 66.781 s): 923.886 RLU
RLU (Time 68.781 s): 937.947 RLU
RLU (Time 70.781 s): 951.397 RLU
RLU (Time 72.781 s): 951.831 RLU
RLU (Time 74.781 s): 959.178 RLU
RLU (Time 76.781 s): 961.002 RLU
RLU (Time 78.781 s): 948.826 RLU
RLU (Time 80.781 s): 939.325 RLU
RLU (Time 82.781 s): 951.223 RLU
RLU (Time 84.781 s): 936.985 RLU
RLU (Time 86.781 s): 922.709 RLU
RLU (Time 88.781 s): 911.664 RLU
RLU (Time 90.781 s): 942.653 RLU
RLU (Time 92.781 s): 908.427 RLU
RLU (Time 94.781 s): 912.682 RLU
RLU (Time 96.781 s): 907.486 RLU
RLU (Time 98.781 s): 899.352 RLU
RLU (Time 100.781 s): 901.766 RLU
RLU (Time 102.781 s): 898.622 RLU
RLU (Time 104.781 s): 885.627 RLU
RLU (Time 106.781 s): 885.616 RLU
RLU (Time 108.781 s): 859.767 RLU
RLU (Time 110.781 s): 849.777 RLU
RLU (Time 112.781 s): 824.416 RLU
RLU (Time 114.781 s): 805.273 RLU
RLU (Time 116.781 s): 784.094 RLU
RLU (Time 118.781 s): 781.757 RLU
RLU (Time 120.781 s): 784.883 RLU
RLU (Time 122.781 s): 777.647 RLU
RLU (Time 124.781 s): 774.835 RLU
RLU (Time 126.781 s): 752.144 RLU
RLU (Time 128.781 s): 755.376 RLU
RLU (Time 130.781 s): 741.203 RLU
RLU (Time 132.781 s): 735.986 RLU
RLU (Time 134.781 s): 705.295 RLU
RLU (Time 136.781 s): 715.373 RLU
RLU (Time 137.563 s): 694.021 RLU
RLU (Time 143.563 s): 674.141 RLU
RLU (Time 149.563 s): 648.129 RLU
RLU (Time 155.563 s): 630.623 RLU
RLU (Time 161.563 s): 621.371 RLU
RLU (Time 167.563 s): 569.451 RLU
RLU (Time 173.563 s): 563.656 RLU
RLU (Time 179.563 s): 519.424 RLU
RLU (Time 185.563 s): 518.545 RLU
RLU (Time 191.563 s): 496.035 RLU
RLU (Time 197.563 s): 519.073 RLU
RLU (Time 203.563 s): 511.704 RLU
RLU (Time 209.563 s): 507.09 RLU
RLU (Time 215.563 s): 499.344 RLU
RLU (Time 221.563 s): 510.025 RLU
RLU (Time 227.563 s): 524.879 RLU
RLU (Time 233.563 s): 522.75 RLU
RLU (Time 239.563 s): 547.672 RLU
RLU (Time 245.563 s): 498.436 RLU
RLU (Time 293.563 s): 489.083 RLU
RLU (Time 299.563 s): 473.554 RLU
RLU (Time 305.563 s): 449.101 RLU
RLU (Time 311.563 s): 467.667 RLU
RLU (Time 317.563 s): 473.372 RLU
RLU (Time 323.563 s): 461.769 RLU
RLU (Time 329.563 s): 454.066 RLU
RLU (Time 335.563 s): 446.164 RLU
RLU (Time 341.563 s): 461.362 RLU
RLU (Time 347.563 s): 456.539 RLU
RLU (Time 353.563 s): 466.548 RLU
RLU (Time 359.563 s): 455.13 RLU
Activation threshold concentration Tas2r126 (p < 0.01 vs empty vector): 100 µM

— paper PMC10247784, “Physiological activation of human and mouse bitter taste receptors by bile acids” (Communications Biology, 2023)
